Laboratory results: patent US9266904B2, “6-bridged heteroaryldihydropyrimidines for the treatment and prophylaxis of hepatitis B virus infection” (priority 2013, dated 2016)
Converted amounts (≈) assume the structure as drawn. Where two headings read alike, the source gives them in different places.

How the values were obtained:
[1] = tested on: HBV replication in HepG2.2.15 cells; assay: Anti-HBV activity in vitro in HepG2.2.15 cells (extracellular HBV DNA by qPCR); assay type: cell-based; details: Hepatitis B virus
Method in brief: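 Constitutively HBV-producing HepG2.2.15 cells were seeded overnight at 37 °C, then treated with half-log serial dilutions of compound (0.5% DMSO final) for five days. Supernatant HBV DNA was extracted and quantified by qPCR; EC50 is the concentration inhibiting HBV replication by 50%.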

[2] = Human microsomal clearance assay; assay type: in vitro ADME
Procedure: Microsomes were preincubated with test compound for 10 minutes at 37° C. in 100 mM phosphate buffer with pH 7.4. The reactions were initiated by adding NADPH regenerating system to give a final incubation volume of 400 μL. The incubations finally contained 1 μM test compound, 0.5 mg/mL liver microsomal protein, 3.0 mM glucose 6-phosphate, 1.0 mM NADP, 3.0 mM MgCl2 and 0.05 mg/mL glucose 6-phosphate dehydrogenase in 100 mM phosphate buffer with pH 7.4. After incubation times of 0, 3, 6, 9, 15 and 30 minutes, 50 μL, incubation was transferred to the quench solution containing the internal standard which was 2 μM tolbutamide. After precipitation and centrifugation, test compound concentrations in the samples were determined by LC-MS/MS. Controls of no NADPH regenerating system at zero and 30 minutes were also prepared and analyzed.

[3] = Lyophilisation solubility assay (Lysa); assay type: physicochemical; details: thermodynamic from solid
Procedure: The aqueous solubility is an important physico-chemical property that plays a significant role in various physical and biological processes. It is desirable to have good solubility which enables good permeability and gastric and intestinal absorption, linear dose proportionality, less PK variability, and easy formulation for PD/PK studies. […] Lyophilisation solubility assay (Lysa) is a well adopted high throughput assay to measure compound solubility in industry.
Samples are prepared in duplicate from 10 mM DMSO stock solutions. After evaporation of DMSO with a centrifugal vacuum evaporator, the residue is solved in 0.05 M phosphate buffer (pH 6.5), stirred for one hour and then shook for two hours. After one night, the solution is filtered using a microtiter filter plate and then the filtrate and its 1/10 dilution are then analyzed by direct UV measurement or by HPLC-UV. In addition a four-point calibration curve is prepared from the 10 mM stock solutions and used for the solubility determination of the compounds. The results are in μg/ml. In case the percentage of sample measured in solution after evaporation divided by the calculated maximum of sample amount is bigger than 80% the solubility is reported as bigger than this value.

[4] = HepG2.2.15, Anti-HBV activity in HepG2.2.15 cells, read-out: EC50
[5] = aqueous buffer, 0.05 M phosphate buffer (pH 6.5), reported as bigger than the value if more than 80% of the sample is in solution, read-out: Lysa

## COC(=O)C1=C(CN2[C@@H]3COC[C@H]2CN(C(=O)C(C)(C)C(=O)O)C3)NC(c2nccs2)=N[C@H]1c1ccc(F)cc1Cl [Example 79, 3-[(1S,5R)-9-[[(4R)-4-(2-chloro-4-fluoro-phenyl)-5-methoxycarbonyl-2-thiazol-2-yl-1,4-dihydropyrimidin-6-yl]methyl]-3-oxa-7,9-diazabicyclo[3.3.1]nonan-7-yl]-2,2-dimethyl-3-oxo-propanoic acid]
[1]; [4]
  EC50: 293 nM
[2]; human, 1 μM, pH 7.4
  CLh: 3.5 mL/min/kg
[3]; pH 6.5, aqueous buffer
  solubility thermodynamic: > 745 µg/mL

## COC(=O)C1=C(CN2[C@H]3CC[C@]2(C(=O)O)COC3)NC(c2nccs2)=N[C@H]1c1ccc(F)c(F)c1C [Example 84, (1S,5R)-8-[[(4S)-4-(3,4-difluoro-2-methyl-phenyl)-5-methoxycarbonyl-2-thiazol-2-yl-1,4-dihydropyrimidin-6-yl]methyl]-3-oxa-8-azabicyclo[3.2.1]octane-5-carboxylic acid]
[1]; [4]
  EC50: 37.6 nM
[2]; human, 1 μM, pH 7.4
  CLh: 0 mL/min/kg
[3]; pH 6.5, aqueous buffer
  solubility thermodynamic: > 643 µg/mL

## COC(=O)C1=C(CN2C3COCC2C(O)[C@H](CC(=O)O)C3)NC(c2nccs2)=N[C@H]1c1ccc(F)cc1Cl (stereo partly drawn) [Example 123, 2-[(7S)-9-[[(4R)-4-(2-chloro-4-fluoro-phenyl)-5-methoxycarbonyl-2-thiazol-2-yl-1,4-dihydropyrimidin-6-yl]methyl]-6-hydroxy-3-oxa-9-azabicyclo[3.3.1]nonan-7-yl]acetic acid]
[1]; [4]
  EC50: 35.7 nM
[2]; human, 1 μM, pH 7.4
  CLh: 3.0 mL/min/kg
[3]; pH 6.5, aqueous buffer
  solubility thermodynamic: > 753 µg/mL

## COC(=O)C1=C(CN2[C@@H]3COC[C@H]2C[C@H](CC(=O)O)C3)NC(c2nccs2)=N[C@H]1c1ccccc1Br [Example 76, Exo-2-[(1S,5R)-9-[[(4R)-4-(2-bromophenyl)-5-methoxycarbonyl-2-thiazol-2-yl-1,4-dihydropyrimidin-6-yl]methyl]-3-oxa-9-azabicyclo[3.3.1]nonan-7-yl]acetic acid]
[1]; [4]
  EC50: 31 nM
[2]; human, 1 μM, pH 7.4
  CLh: 3.3 mL/min/kg
[3]; pH 6.5, aqueous buffer
  solubility thermodynamic: > 706 µg/mL

## CCOC(=O)C1=C(CN2C3COCC2CC(CC(=O)O)C3)NC(c2nccs2)=N[C@H]1c1ccc(F)c(F)c1 (stereo partly drawn) [Example 29, (S)-6-(7-Carboxymethyl-3-oxa-9-aza-bicyclo[3.3.1]non-9-ylmethyl)-4-(3,4-difluoro-phenyl)-2-thiazol-2-yl-1,4-dihydro-pyrimidine-5-carboxylic acid ethyl ester]
[1]; [4]
  EC50: 34.3 nM
[2]; human, 1 μM, pH 7.4
  CLh: 1.7 mL/min/kg
[3]; pH 6.5, aqueous buffer
  solubility thermodynamic: > 600 µg/mL

## COC(=O)C1=C(CN2C3COCC2CN(C(C)C)C3)NC(c2nccs2)=N[C@H]1c1ccc(F)cc1Cl [Example 13, (R)-4-(2-Chloro-4-fluoro-phenyl)-6-(7-isopropyl-3-oxa-7,9-diaza-bicyclo[3.3.1]non-9-ylmethyl)-2-thiazol-2-yl-1,4-dihydro-pyrimidine-5-carboxylic acid methyl ester]
[1]; [4]
  EC50: 270 nM
[3]; pH 6.5, aqueous buffer
  solubility thermodynamic: 313 µg/mL (≈ 586 µM)

## COC(=O)C1=C(CN2C3COCC2C(F)(F)[C@@H](CC(=O)O)C3)NC(c2nccs2)=N[C@H]1c1ccc(F)cc1Cl (stereo partly drawn) [Example 125, 2-[(7R)-9-[[(4R)-4-(2-chloro-4-fluoro-phenyl)-5-methoxycarbonyl-2-thiazol-2-yl-1,4-dihydropyrimidin-6-yl]methyl]-6,6-difluoro-3-oxa-9-azabicyclo[3.3.1]nonan-7-yl]acetic acid]
[1]; [4]
  EC50: 26.1 nM
[2]; human, 1 μM, pH 7.4
  CLh: 0 mL/min/kg
[3]; pH 6.5, aqueous buffer
  solubility thermodynamic: 170 µg/mL (≈ 291 µM)

## COC(=O)C1=C(CN2[C@H]3CC[C@]2(C(=O)O)COC3)NC(c2nccs2)=N[C@H]1c1ccc(F)cc1Cl [Example 81, (1S,5R)-8-[[(4R)-4-(2-chloro-4-fluoro-phenyl)-5-methoxycarbonyl-2-thiazol-2-yl-1,4-dihydropyrimidin-6-yl]methyl]-3-oxa-8-azabicyclo[3.2.1]octane-5-carboxylic acid]
[1]; [4]
  EC50: 40.5 nM
[2]; human, 1 μM, pH 7.4
  CLh: 0 mL/min/kg
[3]; pH 6.5, aqueous buffer
  solubility thermodynamic: > 673 µg/mL

## COC(=O)C1=C(CN2[C@H]3CC[C@]2(C(=O)O)CC3(F)F)NC(c2nccs2)=N[C@H]1c1ccc(F)cc1Cl [Example 148, (1S,4R)-7-[[(4R)-4-(2-chloro-4-fluoro-phenyl)-5-methoxycarbonyl-2-thiazol-2-yl-1,4-dihydropyrimidin-6-yl]methyl]-2,2-difluoro-7-azabicyclo[2.2.1]heptane-4-carboxylic acid]
[1]; [4]
  EC50: 59.2 nM
[2]; human, 1 μM, pH 7.4
  CLh: 2.3 mL/min/kg
[3]; pH 6.5, aqueous buffer
  solubility thermodynamic: > 655 µg/mL

## COC(=O)C1=C(CN2C3COCC2CC(C(=O)O)C3)NC(c2nccs2)=NC1c1ccc(F)c(F)c1 (stereo not drawn) [Example 3, 9-[6-(3,4-Difluoro-phenyl)-5-methoxycarbonyl-2-thiazol-2-yl-3,6-dihydro-pyrimidin-4-ylmethyl]-3-oxa-9-aza-bicyclo[3.3.1]nonane-7-carboxylic acid]
[1]; [4]
  EC50: 400 nM
[2]; human, 1 μM, pH 7.4
  CLh: 0 mL/min/kg
[3]; pH 6.5, aqueous buffer
  solubility thermodynamic: > 678 µg/mL

## COC(=O)C1=C(CN2CC3(F)CC2(C(=O)O)C3)NC(c2nccs2)=N[C@H]1c1ccc(F)cc1Cl [Example 40, 2-[(R)-6-(2-Chloro-4-fluoro-phenyl)-5-methoxycarbonyl-2-thiazol-2-yl-3,6-dihydro-pyrimidin-4-ylmethyl]-4-fluoro-2-aza-bicyclo[2.1.1]hexane-1-carboxylic acid]
[1]; [4]
  EC50: 32 nM
[2]; human microsomal clearance
  CLh: 1.4 mL/min/kg
[3]; [5]
  solubility thermodynamic: > 634 µg/mL

## CCOC(=O)C1=C(CN2[C@@H]3COC[C@H]2[C@H](F)[C@@H](CC(=O)O)C3)NC(c2nccs2)=N[C@H]1c1ccccc1Cl [Example 102, 2-[(1S,5S,6R,7R)-9-[[(4R)-4-(2-chlorophenyl)-5-ethoxycarbonyl-2-thiazol-2-yl-1,4-dihydropyrimidin-6-yl]methyl]-6-fluoro-3-oxa-9-azabicyclo[3.3.1]nonan-7-yl]acetic acid]
[1]; [4]
  EC50: 66 nM
[2]; human, 1 μM, pH 7.4
  CLh: 3.0 mL/min/kg
[3]; pH 6.5, aqueous buffer
  solubility thermodynamic: 410 µg/mL (≈ 728 µM)

## COC(=O)C1=C(CN2C3COCC2C(O)[C@@H](CC(=O)O)C3)NC(c2nccs2)=N[C@H]1c1ccc(F)cc1Cl (stereo partly drawn) [Example 124, 2-[(7R)-9-[[(4R)-4-(2-chloro-4-fluoro-phenyl)-5-methoxycarbonyl-2-thiazol-2-yl-1,4-dihydropyrimidin-6-yl]methyl]-6-hydroxy-3-oxa-9-azabicyclo[3.3.1]nonan-7-yl]acetic acid]
[1]; [4]
  EC50: 296 nM
[2]; human, 1 μM, pH 7.4
  CLh: 4.2 mL/min/kg
[3]; pH 6.5, aqueous buffer
  solubility thermodynamic: > 753 µg/mL

## COC(=O)C1=C(CN2CC3CC2CN3C(C)=O)NC(c2nccs2)=N[C@H]1c1ccc(F)cc1Cl (stereo partly drawn) [Example 41, (R)-6-(5-Acetyl-2,5-diaza-bicyclo[2.2.1]hept-2-ylmethyl)-4-(2-chloro-4-fluoro-phenyl)-2-thiazol-2-yl-1,4-dihydro-pyrimidine-5-carboxylic acid methyl ester]
[1]; HepG2.2.15
  EC50: 133 nM
[3]; [5]
  solubility thermodynamic: > 552 µg/mL

## COC(=O)C1=C(CN2C3CNC(=O)CC2COC3)NC(c2nccs2)=N[C@H]1c1ccc(F)cc1Cl (stereo partly drawn) [Example 34, (R)-4-(2-Chloro-4-fluoro-phenyl)-6-(4-oxo-8-oxa-3,10-diaza-bicyclo[4.3.1]dec-10-ylmethyl)-2-thiazol-2-yl-1,4-dihydro-pyrimidine-5-carboxylic acid methyl ester]
[1]; [4]
  EC50: 42 nM
[3]; pH 6.5, aqueous buffer
  solubility thermodynamic: 263 µg/mL (≈ 506 µM)

## COC(=O)C1=C(CN2C3COCC2CN(C(C)=O)C3)NC(c2nccs2)=N[C@H]1c1ccc(F)cc1Cl [Example 15, (R)-6-(7-Acetyl-3-oxa-7,9-diaza-bicyclo[3.3.1]non-9-ylmethyl)-4-(2-chloro-4-fluoro-phenyl)-2-thiazol-2-yl-1,4-dihydro-pyrimidine-5-carboxylic acid methyl ester]
[1]; [4]
  EC50: 43 nM
[3]; pH 6.5, aqueous buffer
  solubility thermodynamic: 233 µg/mL (≈ 436 µM)

## COC(=O)C1=C(CN2[C@@H]3CC[C@H]2C[C@@H](O)C3)NC(c2nccs2)=N[C@H]1c1ccc(F)cc1Cl [Example 44, (R)-4-(2-Chloro-4-fluoro-phenyl)-6-((1R,3R,5S)-3-hydroxy-8-aza-bicyclo[3.2.1]oct-8-ylmethyl)-2-thiazol-2-yl-1,4-dihydro-pyrimidine-5-carboxylic acid methyl ester]
[2]; human, 1 μM, pH 7.4
  CLh: 7.1 mL/min/kg
[3]; pH 6.5, aqueous buffer
  solubility thermodynamic: > 623 µg/mL

## COC(=O)C1=C(CN2C3CSCC2CC(CC(=O)O)C3)NC(c2nccs2)=N[C@H]1c1ccc(F)cc1Cl (stereo partly drawn) [Example 42, 6-(7-Carboxymethyl-3-thia-9-aza-bicyclo[3.3.1]non-9-ylmethyl)-4-(2-chloro-4-fluoro-phenyl)-2-thiazol-2-yl-1,4-dihydro-pyrimidine-5-carboxylic acid methyl ester]
[1]; [4]
  EC50: 54.5 nM
[3]; pH 6.5, aqueous buffer
  solubility thermodynamic: 188 µg/mL (≈ 333 µM)
